Measured values: US5672603A, “Apoptosis regulating composition” (Otsuka Pharmaceutical Co., Ltd., priority 1991, dated 1997)

Test system: W/BF1 :(NZW×BXSB)F1 mice
Experiment: Blood cell analysis in autoimmune disease mice
Assay type: in vivo
Protocol: W/BF1 :(NZW×BXSB)F1 mice were used at the age of 14 weeks (purchased from Kiwa Experimental Animal). Groups of 10 mice were used in each experiment.
The mice in respective groups were given a diet (Oriental Yeast), which is usually given to this kind of mice, and water.
Compound 1 (Lot No. 9D87M) was used as suspended in a 0.5% solution of carborymethylcellulose (CMC, Cellogan). Compound 1 was administered to mice by oral garage in doses of 100 and 300 mg/kg body weight/day for 6 weeks from 14 weeks of age to 20 weeks of age according to the 5-day administration and 2-day cessation schedule. As a control, an untreated group was provided. […] Statistic analysis was performed by the generalized Wilcoxon test with respect to the untreated group.
(2) For blood cell analysis, the blood was sampled from the fundus oculi at the age of 14, 16, 18 and 20 weeks. Changes in blood cell (white blood cell, red blood cell and platelet) counts were determined using an automatic blood cell analyzer (Coulter JR, Coulter). The differential (neutrophil and 11 lymphocyte) counts were determined using blood smears stained with Wright-Giemsa stain. For statistical analysis, Student's t test was used, taking the untreated group as control, on each blood sampling day.

For `COc1ccc(C(=O)N2CCN(c3ccc4c(c3)CCC(=O)N4)CC2)cc1OC` [Compound 1, 6-[4-(3,4-Dimethoxybenzoyl)-1-piperazinyl]-3,4-dihydrocarbostyril], the Lymphocytes (100 mg/kg, 14 weeks of age) was 6.55 ± 1.11 ×10^3 /mm^3, the Neutrophils (100 mg/kg, 14 weeks of age) was 0.97 ± 0.21 ×10^3 /mm^3 and the Platelets (100 mg/kg, 14 weeks of age) was 1225.2 ± 187.6 ×10^3 /mm^3. For the same compound, the Red blood cells (100 mg/kg, 14 weeks of age) was 9.08 ± 0.19 ×10^6 /mm^3, the White blood cells (100 mg/kg, 14 weeks of age) was 7.53 ± 1.26 ×10^3 /mm^3 and the Lymphocytes (100 mg/kg, 16 weeks of age) was 9.83 ± 2.72 ×10^3 /mm^3. For the same compound, the Neutrophils (100 mg/kg, 16 weeks of age) was 3.01 ± 2.14 ×10^3 /mm^3, the Platelets (100 mg/kg, 16 weeks of age) was 749.6 ± 116.6 ×10^3 /mm^3 and the White blood cells (100 mg/kg, 16 weeks of age) was 12.91 ± 4.76 ×10^3 /mm^3. The Red blood cells (100 mg/kg, 16 weeks of age, *P < 0.05) was 9.06 ± 0.19 ×10^6 /mm^3, the Lymphocytes (100 mg/kg, 18 weeks of age) was 10.68 ± 3.78 ×10^3 /mm^3 and the Neutrophils (100 mg/kg, 18 weeks of age) was 5.82 ± 1.65 ×10^3 /mm^3. For the same compound, the Platelets (100 mg/kg, 18 weeks of age) was 524.0 ± 105.6 ×10^3 /mm^3, the Red blood cells (100 mg/kg, 18 weeks of age) was 8.46 ± 0.34 ×10^6 /mm^3 and the White blood cells (100 mg/kg, 18 weeks of age) was 16.49 ± 4.98 ×10^3 /mm^3. For the same compound, the Lymphocytes (100 mg/kg, 20 weeks of age) was 8.70 ± 1.02 ×10^3 /mm^3, the Neutrophils (100 mg/kg, 20 weeks of age) was 3.25 ± 1.06 ×10^3 /mm^3 and the Platelets (100 mg/kg, 20 weeks of age) was 341.1 ± 111.9 ×10^3 /mm^3. The White blood cells (100 mg/kg, 20 weeks of age) was 11.72 ± 1.71 ×10^3 /mm^3, the Red blood cells (100 mg/kg, 20 weeks of age, *P < 0.05) was 8.29 ± 0.37 ×10^6 /mm^3 and the “Inhibition of decrease in platelet count (in words)” value (300 mg/kg/day, 20 weeks of age, vs untreated) was “significant inhibition”. For the same compound, the Lymphocytes (300 mg/kg, 14 weeks of age) was 4.50 ± 0.63 ×10^3 /mm^3, the Neutrophils (300 mg/kg, 14 weeks of age) was 0.79 ± 0.19 ×10^3 /mm^3 and the Platelets (300 mg/kg, 14 weeks of age) was 1316.8 ± 86.3 ×10^3 /mm^3. For the same compound, the Red blood cells (300 mg/kg, 14 weeks of age) was 9.17 ± 0.21 ×10^6 /mm^3, the White blood cells (300 mg/kg, 14 weeks of age) was 5.46 ± 0.74 ×10^3 /mm^3 and the Lymphocytes (300 mg/kg, 16 weeks of age) was 7.01 ± 0.92 ×10^3 /mm^3. For the same compound, the Neutrophils (300 mg/kg, 16 weeks of age) was 1.86 ± 0.40 ×10^3 /mm^3, the Platelets (300 mg/kg, 16 weeks of age) was 1055.8 ± 72.0 ×10^3 /mm^3 and the Red blood cells (300 mg/kg, 16 weeks of age) was 8.43 ± 0.30 ×10^6 /mm^3. The White blood cells (300 mg/kg, 16 weeks of age) was 9.36 ± 1.77 ×10^3 /mm^3, the Lymphocytes (300 mg/kg, 18 weeks of age) was 6.16 ± 0.88 ×10^3 /mm^3 and the Neutrophils (300 mg/kg, 18 weeks of age) was 5.65 ± 2.77 ×10^3 /mm^3. For the same compound, the Platelets (300 mg/kg, 18 weeks of age) was 980.0 ± 114.4 ×10^3 /mm^3, the Red blood cells (300 mg/kg, 18 weeks of age) was 8.83 ± 0.32 ×10^6 /mm^3 and the White blood cells (300 mg/kg, 18 weeks of age) was 11.90 ± 3.52 ×10^3 /mm^3. For the same compound, the Lymphocytes (300 mg/kg, 20 weeks of age) was 10.73 ± 5.81 ×10^3 /mm^3, the Neutrophils (300 mg/kg, 20 weeks of age) was 2.24 ± 0.23 ×10^3 /mm^3 and the Red blood cells (300 mg/kg, 20 weeks of age) was 7.90 ± 0.30 ×10^6 /mm^3. The White blood cells (300 mg/kg, 20 weeks of age) was 12.97 ± 5.95 ×10^3 /mm^3, the Platelets (300 mg/kg, 20 weeks of age, **P < 0.01) was 823.3 ± 24.5 ×10^3 /mm^3 and the “Red blood cell count (in words)” value (compared with the platelet count result) was “A similar result was found for red blood cell count”. The “Effect on white blood cell count (in words)” value (mouse, in vivo) was “no effect on this parameter”.
